Read-outs that look alike come from different tables or passages of the source.

For data set [1], the system named is HeLa cells. Kind of data set: [3H]-triptolide saturation (specific) binding in HeLa cells. Particulars: 0-100 nM [3H]-triptolide 1 h, non-specific binding with 2 μM cold triptolide, read-out: [3H]-triptolide binding affinity (KD), specific binding. As for the experimental part: Based upon the data above, Applicant next sought to determine if triptolide binding was saturable and if more than one protein (or binding site) was being targeted. Determination of the [^3H]-triptolide binding affinity (KD) and the binding capacity per cell (Bmax) were calculated using a saturation plot. HeLa cells were cultured to 90% confluency and subsequently treated with 0-100 nM of [^3H]-triptolide for one hour. Non-specific binding was defined using 2 μM cold triptolide as competitor. Bmax was calculated to be 99±19 fmol triptolide bound/[…] of triptolide binding sites.
Saturation binding assays were accomplished in HeLa cells adhered on 6-well plates in DMEM+10% FBS. All samples were at least 90% confluent at time of addition of triptolide. Non-specific binding of [^3H]-triptolide was assessed by the pre-incubation of 2 μM (non-labeled) triptolide for one hour. Following cold competition (or DMSO) 5, 10, 20, 50, or 100 nM of [^3H]-triptolide was added into the cultures for an additional one hour, and then cells were lysed and counted for binding activity.

A short description of a further data set: in vitro. The class given is cell-based. The following applies: human. The source says:
(§1) To investigate further the role of calcium in triptolide function Applicant utilized a system to buffer intracellular calcium levels. Various GFP-parvalbumin (PV) fusion proteins can be specifically localized to either the nucleus or the cytoplasm through a nuclear localization or exclusion signal (NLS or NES, respectively) (Pusl, et al., 2002, J Biol Chem 277, 27517-27527). Parvalbumin has two EF-hand calcium binding domains and can efficiently reduce the availability of free calcium in the cell (Pauls, et al., 1996, Biochim Biophys Acta 1306, 39-54). HeLa cells were transiently transfected with the GFP vector control, NES-PV-GFP, or NLS-PV-GFP in calcium containing media and efficient expression of each construct was determined by GFP localization (FIG. 6A). Normal cell growth was first assessed throughout 48 hours with each of the constructs. […] For triptolide experiments, cells were transfected and allowed to express the construct for 24 hours before the addition of 100 nM triptolide. After 24 and 48 hours of treatment, cells were assessed for viability. […] Since the parvalbumin buffering experiments are done in the presence of extracellular calcium, the cell can operate normally in that intracellular calcium stores may be refilled. It is reasonable to expect then if calcium homeostasis is being affected (i.e., cytosolic calcium levels increase) by triptolide, then parvalbumin would eventually reach a saturation point. This might explain why the rescue from apoptosis is transient through the 24 hour time point but is lost by 48 hours.
(§2) All parvalbumin-GFP constructs and control vectors (Pusl, et al., 2002, J Biol Chem 277, 27517-27527) were a gift of Anton Bennett (Yale University). Hela cells were plated out on 6- or 12-well plates at a density of 5×10^5 or 1×10^5, respectively. […] Cell viability was assessed at 24 and 48 hours post triptolide addition by morphology and trypan blue dye exclusion.

Data set [2] concerns HeLa cells. Description: in vitro. Particulars: HeLa, 100 nM. It counts as cell-based.
Text: as §1, §2

Another data set has as its system NFκB transactivation. Description: κB-luciferase reporter assay of TNF-α induced NFκB transactivation in HeLa cells. The class given is cell-based. The following applies: for inhibition at 0.1 µM: Homo sapiens. As for the experimental part:
Having established that triptolide induced cell death is dependent upon free calcium concentration, Applicant next determined whether this was also a requirement for the inhibition of NFκB transcription. HeLa cells were transiently transfected with the κB-luciferase reporter construct for 8 hours before being washed and then cultured in the presence or absence of calcium containing medium for 16 hours. Triptolide (100 nM) was pre-incubated with cells for 1 hour before addition of 15 ng/ml of TNF-α for 4 hours.
As an additional experiment, transcriptional activity was also assessed by site-directed calcium buffering. HeLa cells were co-transfected with the κB-luciferase plasmid as well as one of the following constructs: GFP empty vector, NES-PV-GFP, or NLS-PV-GFP and proper GFP localization was confirmed. […]
NFκB transactivation was examined using the κB-luciferase reporter construct. […] Cells were assessed for NFκB driven luciferase expression after an additional five hours of incubation, at which time TNF-α had induced transcriptional activity by approximately 15-fold in control cells. […] The results thus far support a divergence of triptolide-mediated functions: the pathway regulating growth arrest/death is more sensitive to triptolide and calcium than the mechanism leading to transcriptional repression of NFκB.
A triple κB promoter-Luciferase reporter construct was a gift of Sankar Ghosh (Yale University). […] The transfection efficiency of HeLa was determined to be 80-90%, and all samples were normalized to protein concentration. Luciferase assays were performed using the Firefly luciferase kit as per manufacturer's protocol (Promega) and results obtained on the Wallac Victor2 1420 Multilabel Counter (Perkin Elmer).

Data set [3] has as its system Pkd1^−/− murine kidney epithelial cells. Kind of data set: Growth, p21 and active caspase-3 in Pkd1−/− kidney epithelial cells. It counts as cell-based. The following applies: 100 nM. As for the experimental part: Total cell lysates (0.5% Triton X-100, 50 mM Tris pH 7.4, 150 mM NaCl, […]) were prepared for Western blot analysis and samples were run out by SDS-PAGE as per manufacturers' protocols. Brightfield images of cells were taken using a 10× or 40× objective. Confocal microscopy (40×) was used for immunofluorescence imaging of polycystin-2.
Calcium response to triptolide was, thus, shown to be dependent on polycystin-2. The biological response to calcium flux was next assessed in the murine Pkd1^−/− cell line, by adding 100 nM triptolide to the cultured cells and observing cell growth over time. Within the first 24 hours of culture, a minimal number of detached cells was observed. […] In the absence of triptolide, this cell line underwent a population doubling every 48 hours. […] It is possible that additional signaling pathways are activated by triptolide when Pkd1 is expressed. […] Therefore, Applicant assessed whether the inhibition of proliferation observed was due to p21 re-expression upon triptolide treatment.

The next data set relates to Pkd2^+/− cells. Description: Viability of Pkd2+/− kidney epithelial cells. The class given is cell-based, murine. Particulars: Pkd2+/− cells (one copy each of Pkd1 and Pkd2), 100 nM.

For `CC(C)[C@]12O[C@H]1[C@@H]1O[C@]13[C@]1(O[C@H]1C[C@H]1C4=C(CC[C@@]13C)C(=O)OC4)[C@@H]2O` [triptolide], the Kd (commonly the equilibrium constant for the complex coming apart) with HeLa cells [1] turned out to be 15.5 ± 0.8 nM. Further, the cytotoxicity at 24 h, 0.1 µM in “in vitro” turned out to be 50%. In addition, the “cell death in all transfection conditions” value with HeLa cells [2] (by 48 hours) is “complete cell death”. For the same compound, in the data set on HeLa cells [2] (cytosolic parvalbumin (NES-PV-GFP), 24 hours), the apoptosis was 15-20%. In addition, the “inhibition of TNF-α driven transcriptional activity of NFκB” value is given as “did not inhibit” in the data set on NFκB transactivation (10 nM, 1 h pre-treatment + 5 h TNF-α) and “did not inhibit” in the data set with NFκB transactivation (25 nM, 1 h pre-treatment + 5 h TNF-α). The “luciferase induction remaining with compound + TNF-α” value with NFκB transactivation (10 nM, after 24 hours) is reported as more than 20 fold. The “suppression of TNF-α driven NFκB activity” value in the data set on NFκB transactivation (50 nM, 1 h pre-treatment + 5 h TNF-α) stood at 20%. For the same compound, the “suppression of NFκB transactivation with site-directed calcium buffering” value in the data set on NFκB transactivation (100 nM, GFP vector, NES-PV-GFP or NLS-PV-GFP) is recorded as “retained the ability to suppress NFκB transactivation”. In addition, the “inhibition of TNF-α induced NFκB transactivation” value in the data set on NFκB transactivation (100 nM, presence and absence of calcium) is given as “effectively inhibited”. In the data set with NFκB transactivation (1 or 10 μM, 5 hours with TNF-α), the “NFκB activity at higher concentration” value is given as “attenuated further”. Also, the inhibition (as a rule, the relative decrease from the control value, in per cent) at 0.1 µM in the data set on NFκB transactivation (0.1 μM, 5 hours with TNF-α, read-out: NFκB inhibition) was more than 60%; in the data set on NFκB transactivation (100 nM, 1 h pre-treatment + 5 h TNF-α, read-out: inhibition of TNF-α driven NFκB activity (average)), 60%. The “active caspase-3 (western blot)” value in data set [3] was “failed to implicate triptolide induced apoptosis”. Besides, the “p21 expression (western blot)” value in data set [3] (96 hour time course) is “upregulated”. In addition, the cell growth entry in data set [3] (over 96 hours) is listed as “growth arrested”. Besides, the cell viability entry in the data set on Pkd2^+/− cells is recorded as “rapid cell death within 24 hours”.

The values above are taken from US20080063601A1, “Compositions and methods relating to polycystic kidney disease” (priority 2004, published 2008).
